From ChEMBL document CHEMBL5241130, “Integrating a phenotypic screening with a structural simplification strategy to identify 4-phenoxy-quinoline derivatives to potently disrupt the mitotic localization of Aurora kinase B” (Bioorg Med Chem, 2023)
Converted amounts (≈) assume the structure as drawn. The source made the active and inactive calls. The calls are words filed in the database; no cut-off is given here.

Assays:
[1] = molecular target: Aurora kinase B (Homo sapiens) (UniProt Q96GD4); test: Disruption of mitotic localization of AURKB in human RPE-MYC H2B-GFP cells assessed as induction of polyploidy by fluorescence high content cell imaging analysis; type: cell-based
[2] = molecular target: Aurora kinase B (Homo sapiens) (UniProt Q96GD4); test: Disruption of mitotic localization of AURKB in human RPE-MYC cells expressing BCL2 assessed as mitotic index at 40 nM measured after 6 hrs by fluorescence high content cell imaging analysis (reference value: 5.3%); type: cell-based
[3] = molecular target: Aurora kinase B (Homo sapiens) (UniProt Q96GD4); test: Disruption of mitotic localization of AURKB at the spindle mid-zone and equatorial cortex in human RPE-MYC cells expressing BCL2 at 40 nM measured after 6 hrs by immunofluorescence staining analysis; type: cell-based
[4] = molecular target: Aurora kinase B (Homo sapiens) (UniProt Q96GD4); test: Disruption of kinetochore localization of AURKB during prophase of human RPE-MYC cells expressing BCL2 at 40 nM measured after 6 hrs by immunofluorescence staining analysis; type: cell-based
[5] = molecular target: Aurora kinase B (Homo sapiens) (UniProt Q96GD4); test: Disruption of kinetochore localization of AURKB during anaphase of human RPE-MYC cells expressing BCL2 at 40 nM measured after 6 hrs by immunofluorescence staining analysis; type: cell-based
[6] = molecular target: Aurora kinase B (Homo sapiens) (UniProt Q96GD4); test: Disruption of mitotic localization of AURKB in human RPE-MYC cells expressing BCL2 assessed as disruption of PLK1 localization at spindle mid-zone at 40 nM measured after 6 hrs by immunofluorescence staining analysis; type: cell-based
[7] = molecular target: Aurora kinase B (Homo sapiens) (UniProt Q96GD4); test: Disruption of mitotic localization of AURKB in human RPE-MYC cells expressing BCL2 assessed as disruption of MKLP1 localization at spindle mid-zone at 40 nM measured after 6 hrs by immunofluorescence staining analysis; type: cell-based
[8] = tested on: SW480; test: Cytotoxicity against human SW480 cells assessed as cell growth inhibition incubated for 3 days by MTT assay; type: functional, cell-based; conditions: time 3.0 day
[9] = tested on: MDA-MB-231; test: Cytotoxicity against human MDA-MB-231 cells assessed as cell growth inhibition incubated for 3 days by MTT assay; type: functional, cell-based; conditions: time 3.0 day
[10] = molecular target: Discoidin domain-containing receptor 2 (Homo sapiens) (UniProt Q16832); test: Inhibition of human recombinant DDR2 at 2 uM by KINOMEscan assay
[11] = molecular target: Tyrosine-protein kinase ABL1 (Homo sapiens) (UniProt P00519); test: Inhibition of human recombinant ABL1 at 2 uM by KINOMEscan assay
[12] = tested on: Tyrosine-protein kinase ABL1 (Homo sapiens), P00519 [Q252H]; test: Inhibition of human recombinant ABL1 Q252H mutant at 2 uM by KINOMEscan assay
[13] = molecular target: Serine/threonine-protein kinase PLK3 (Homo sapiens) (UniProt Q9H4B4); test: Inhibition of PLK3 (unknown origin) by bio-chip based analysis
[14] = molecular target: Serine/threonine-protein kinase PLK4 (Homo sapiens) (UniProt O00444); test: Inhibition of PLK4 (unknown origin) by bio-chip based analysis
[15] = molecular target: Rho-associated protein kinase 1 (Homo sapiens) (UniProt Q13464); test: Inhibition of ROCK1 (unknown origin) by bio-chip based analysis
[16] = molecular target: Aurora kinase B (Homo sapiens) (UniProt Q96GD4); test: Inhibition of AURKB (unknown origin) by bio-chip based analysis
[17] = molecular target: Receptor-type tyrosine-protein kinase FLT3 (Homo sapiens, UniProt P36888); test: Inhibition of FLT3 (unknown origin); type: toxicity
[18] = Drug degradation in HCl buffer at pH 2.2 measured after 72 hrs by LC-MS analysis; type: physicochemical; conditions: read-out: Drug degradation
[19] = Kinetic solubility of the compound in PBS buffer at pH 7.4 measured after 72 hrs by LC-MS analysis; type: physicochemical; conditions: read-out: Kinetic_solubility
[20] = Lipophilicity, log D of the compound in Octanol and HCl buffer at pH 2.2 incubated for 24 hrs under shaking condition followed by incubation for 1 hr without shaking by LC-MS analysis; type: physicochemical
[21] = Lipophilicity, log D of the compound in Octanol and PBS buffer at pH 7.4 incubated for 24 hrs under shaking condition followed by incubation for 1 hr without shaking by LC-MS analysis; type: physicochemical
[22] = Half life in Wistar rat at 20 mg/kg, po measured for 24 hrs by LC-MS/MS analysis; type: ADME, organism-based; conditions: in vivo
[23] = Tmax in Wistar rat at 20 mg/kg, po measured for 24 hrs by LC-MS/MS analysis; type: ADME, organism-based; conditions: in vivo
[24] = Cmax in Wistar rat at 20 mg/kg, po measured for 24 hrs by LC-MS/MS analysis; type: ADME, organism-based; parameters: time 24 hrs, dose 20 mg/kg, route po; conditions: in vivo
[25] = Dose normalized AUC (0 to infinity) in Wistar rat at 20 mg/kg, po by LC-MS/MS analysis; type: ADME, organism-based; conditions: in vivo
[26] = Half life in Wistar rat at 2 mg/kg, iv measured for 24 hrs by LC-MS/MS analysis; type: ADME, organism-based; conditions: in vivo
[27] = Apparent volume of distribution in Wistar rat at 2 mg/kg, iv measured after 24 hrs by LC-MS/MS analysis; type: ADME, organism-based; conditions: in vivo, read-out: Vz
[28] = Clearance in Wistar rat at 2 mg/kg, iv measured after 24 hrs by LC-MS/MS analysis; type: ADME, organism-based; conditions: in vivo
[29] = MRT (0 to infinity) in Wistar rat at 2 mg/kg, iv by LC-MS/MS analysis; type: ADME, organism-based; conditions: in vivo
[30] = Toxicity in BALB/c nude mouse xenografted with human HCT-116 cells assessed as animal's well being at 50 mg/kg, po bid for 7 days; type: organism-based; conditions: in vivo, 168 h, time 7 day
[31] = tested on: Mus musculus; test: Induction of mitotic arrest in BALB/c nude mouse xenografted with human HCT-116 cells assessed as increase in mitotic index by measuring increase in accumulation of H3Ser10P positive cells in tumor at 50 mg/kg, po bid for 7 days by immunohistochemical staining based analysis relative to control; type: functional; conditions: time 7 day
[32] = Ratio of drug uptake in tumor of BALB/c nude mouse xenografted with human HCT-116 cells at 50 mg/kg, po bid for 7 days and measured at 6 hrs post-last drug administration to MEC for Disruption of mitotic localization of AURKB in human RPE-MYC H2B-GFP cells assessed as induction of polyploidy
[33] = Ratio of AUC (0 to 6 hrs) in BALB/c nude mouse xenografted with human HCT-116 cells at 50 mg/kg, po bid for 7 days to AUC (0 to 6 hrs) in BALB/c nude mouse xenografted with human HCT-116 cells administered as single dose; type: ADME, organism-based; conditions: in vivo
[34] = molecular target: Aurora kinase B (Homo sapiens) (UniProt Q96GD4); test: Disruption of mitotic localization of AURKB in human RPE-MYC H2B-GFP cells assessed as induction of polyploidy by fluorescence high content cell imaging analysis relative to control; type: cell-based
[35] = molecular target: Aurora kinase B (Homo sapiens) (UniProt Q96GD4); test: Inhibition of AURKB in human RPE-MYC H2B-GFP cells assessed as inhibition of histone H3 phosphorylation at Ser10 residue at 8XMEC measured after 6 hrs by immunofluorescence staining analysis; type: cell-based

Sequence of Aurora kinase B (Homo sapiens) (Q96GD4 whole entry): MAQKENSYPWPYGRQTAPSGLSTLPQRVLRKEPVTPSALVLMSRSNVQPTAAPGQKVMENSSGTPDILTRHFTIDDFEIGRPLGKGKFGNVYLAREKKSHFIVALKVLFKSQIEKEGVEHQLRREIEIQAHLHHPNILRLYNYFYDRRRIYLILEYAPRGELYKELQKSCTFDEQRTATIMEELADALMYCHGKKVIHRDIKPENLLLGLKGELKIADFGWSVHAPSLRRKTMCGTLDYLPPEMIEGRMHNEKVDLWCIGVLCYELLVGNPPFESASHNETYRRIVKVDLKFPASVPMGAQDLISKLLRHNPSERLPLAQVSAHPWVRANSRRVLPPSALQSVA
Sequence of Serine/threonine-protein kinase PLK3 (Homo sapiens) (Q9H4B4 whole entry, looked up): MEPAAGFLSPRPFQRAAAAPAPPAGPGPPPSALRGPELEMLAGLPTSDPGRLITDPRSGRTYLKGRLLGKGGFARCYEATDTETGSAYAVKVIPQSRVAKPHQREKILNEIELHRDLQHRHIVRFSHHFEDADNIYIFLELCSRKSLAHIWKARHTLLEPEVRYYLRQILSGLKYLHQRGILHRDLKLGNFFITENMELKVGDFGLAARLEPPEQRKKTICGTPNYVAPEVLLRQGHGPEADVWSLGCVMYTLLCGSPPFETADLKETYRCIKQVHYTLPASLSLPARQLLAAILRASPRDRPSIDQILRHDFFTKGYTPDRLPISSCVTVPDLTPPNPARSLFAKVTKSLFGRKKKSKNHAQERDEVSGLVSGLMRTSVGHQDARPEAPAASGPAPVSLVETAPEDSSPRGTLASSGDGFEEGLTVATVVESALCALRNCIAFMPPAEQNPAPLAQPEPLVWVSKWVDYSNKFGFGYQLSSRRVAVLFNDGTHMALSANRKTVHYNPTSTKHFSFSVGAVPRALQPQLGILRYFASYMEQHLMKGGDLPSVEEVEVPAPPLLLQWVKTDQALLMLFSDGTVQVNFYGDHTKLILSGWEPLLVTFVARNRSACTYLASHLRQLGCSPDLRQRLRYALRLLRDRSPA
Sequence of Discoidin domain-containing receptor 2 (Homo sapiens) (Q16832 whole entry, the tested form may be a part): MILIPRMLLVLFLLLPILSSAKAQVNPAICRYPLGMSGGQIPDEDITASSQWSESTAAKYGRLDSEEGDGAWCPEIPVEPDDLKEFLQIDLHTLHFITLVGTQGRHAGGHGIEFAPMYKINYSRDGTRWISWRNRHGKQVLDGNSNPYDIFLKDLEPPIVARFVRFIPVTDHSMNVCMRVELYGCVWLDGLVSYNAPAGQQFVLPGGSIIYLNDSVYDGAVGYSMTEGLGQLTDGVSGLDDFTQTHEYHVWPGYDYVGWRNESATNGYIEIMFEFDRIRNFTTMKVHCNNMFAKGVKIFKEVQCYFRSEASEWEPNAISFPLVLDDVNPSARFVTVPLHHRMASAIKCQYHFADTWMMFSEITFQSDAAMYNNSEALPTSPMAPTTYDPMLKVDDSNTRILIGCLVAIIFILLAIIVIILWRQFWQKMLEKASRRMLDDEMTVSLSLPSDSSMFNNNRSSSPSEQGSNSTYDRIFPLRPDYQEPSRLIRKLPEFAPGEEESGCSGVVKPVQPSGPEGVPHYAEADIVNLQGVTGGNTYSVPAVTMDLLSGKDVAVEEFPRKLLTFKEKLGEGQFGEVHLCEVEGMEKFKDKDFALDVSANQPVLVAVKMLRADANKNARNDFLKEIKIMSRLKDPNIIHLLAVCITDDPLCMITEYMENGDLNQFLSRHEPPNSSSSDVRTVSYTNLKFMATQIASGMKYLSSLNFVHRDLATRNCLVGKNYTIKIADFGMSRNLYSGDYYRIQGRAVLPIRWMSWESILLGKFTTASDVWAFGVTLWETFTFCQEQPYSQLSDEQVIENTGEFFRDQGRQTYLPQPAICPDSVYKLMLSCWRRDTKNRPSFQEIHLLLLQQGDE
Sequence of Rho-associated protein kinase 1 (Homo sapiens) (Q13464 2-1354 limits assumed): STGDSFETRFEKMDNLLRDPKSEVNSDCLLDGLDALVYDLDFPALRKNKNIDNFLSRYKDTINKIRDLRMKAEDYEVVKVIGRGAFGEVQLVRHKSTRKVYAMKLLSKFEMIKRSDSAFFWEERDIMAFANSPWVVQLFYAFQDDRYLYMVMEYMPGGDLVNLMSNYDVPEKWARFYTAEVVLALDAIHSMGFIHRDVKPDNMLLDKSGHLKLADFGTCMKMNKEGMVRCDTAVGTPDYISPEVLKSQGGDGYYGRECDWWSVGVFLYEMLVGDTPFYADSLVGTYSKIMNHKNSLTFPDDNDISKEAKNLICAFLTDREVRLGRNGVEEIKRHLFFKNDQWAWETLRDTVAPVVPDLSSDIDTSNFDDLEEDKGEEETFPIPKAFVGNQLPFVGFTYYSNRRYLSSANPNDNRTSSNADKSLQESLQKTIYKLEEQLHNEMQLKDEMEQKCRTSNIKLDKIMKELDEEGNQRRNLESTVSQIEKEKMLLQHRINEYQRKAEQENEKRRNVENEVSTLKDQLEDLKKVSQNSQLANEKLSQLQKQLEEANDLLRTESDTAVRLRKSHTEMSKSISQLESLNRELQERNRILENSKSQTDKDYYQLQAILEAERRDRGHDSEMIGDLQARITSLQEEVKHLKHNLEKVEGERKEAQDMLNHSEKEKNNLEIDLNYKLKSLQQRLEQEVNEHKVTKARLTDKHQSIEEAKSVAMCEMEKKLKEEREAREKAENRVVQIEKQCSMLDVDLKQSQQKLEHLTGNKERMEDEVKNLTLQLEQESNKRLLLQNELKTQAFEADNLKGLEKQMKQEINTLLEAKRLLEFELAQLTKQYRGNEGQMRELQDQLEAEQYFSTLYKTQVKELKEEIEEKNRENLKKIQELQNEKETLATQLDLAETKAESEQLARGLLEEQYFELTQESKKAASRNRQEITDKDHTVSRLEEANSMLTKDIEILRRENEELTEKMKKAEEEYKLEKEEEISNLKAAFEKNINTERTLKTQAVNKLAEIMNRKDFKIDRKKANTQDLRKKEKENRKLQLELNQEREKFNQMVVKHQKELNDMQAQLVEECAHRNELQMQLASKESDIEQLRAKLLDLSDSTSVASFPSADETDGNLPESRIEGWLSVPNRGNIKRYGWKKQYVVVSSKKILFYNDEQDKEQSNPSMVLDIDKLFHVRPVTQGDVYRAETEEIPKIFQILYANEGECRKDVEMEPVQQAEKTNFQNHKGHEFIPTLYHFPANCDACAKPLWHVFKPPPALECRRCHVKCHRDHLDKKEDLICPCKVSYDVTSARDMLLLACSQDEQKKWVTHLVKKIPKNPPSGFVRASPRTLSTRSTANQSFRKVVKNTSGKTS
Sequence of Receptor-type tyrosine-protein kinase FLT3 (P36888 whole entry): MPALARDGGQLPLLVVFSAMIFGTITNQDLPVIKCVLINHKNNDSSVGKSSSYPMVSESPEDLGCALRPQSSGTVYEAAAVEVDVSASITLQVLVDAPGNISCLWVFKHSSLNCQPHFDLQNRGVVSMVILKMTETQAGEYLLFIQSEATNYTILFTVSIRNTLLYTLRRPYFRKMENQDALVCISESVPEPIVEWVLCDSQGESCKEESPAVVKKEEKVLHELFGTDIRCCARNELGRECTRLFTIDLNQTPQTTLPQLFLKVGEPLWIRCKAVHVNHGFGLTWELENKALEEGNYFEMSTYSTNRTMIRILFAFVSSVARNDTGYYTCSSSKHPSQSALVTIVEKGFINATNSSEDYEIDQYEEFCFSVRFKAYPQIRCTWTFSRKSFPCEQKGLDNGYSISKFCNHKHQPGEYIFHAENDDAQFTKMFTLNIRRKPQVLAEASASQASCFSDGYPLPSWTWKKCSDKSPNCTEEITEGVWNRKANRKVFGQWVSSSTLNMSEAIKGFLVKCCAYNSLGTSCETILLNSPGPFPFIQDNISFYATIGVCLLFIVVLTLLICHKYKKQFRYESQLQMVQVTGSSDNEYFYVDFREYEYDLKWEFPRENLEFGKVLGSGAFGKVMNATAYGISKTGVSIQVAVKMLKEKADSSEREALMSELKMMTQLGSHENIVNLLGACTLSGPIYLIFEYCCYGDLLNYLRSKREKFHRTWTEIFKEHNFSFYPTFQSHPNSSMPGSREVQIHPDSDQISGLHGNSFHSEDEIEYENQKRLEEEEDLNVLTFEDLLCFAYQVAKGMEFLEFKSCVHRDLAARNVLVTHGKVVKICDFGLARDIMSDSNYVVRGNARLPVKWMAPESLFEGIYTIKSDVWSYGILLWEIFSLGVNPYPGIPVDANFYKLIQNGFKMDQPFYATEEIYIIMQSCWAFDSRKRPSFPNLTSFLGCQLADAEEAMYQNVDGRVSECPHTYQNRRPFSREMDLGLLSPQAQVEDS

MEC [1]: 0.01 µM
Activity [2]: 15.3%
Activity [3]: Active
Activity [4]: inactive
Activity [5]: Active
Activity [6]: Active
Activity [7]: Active
inhibition [10]: Active
inhibition [11]: Active
inhibition [12]: Active
inhibition [13]: inactive
inhibition [14]: inactive
inhibition [15]: inactive
inhibition [16]: inactive
degraded at 72 h [18]: 0%
solubility kinetic at 72 h [19]: 16 µM (≈ 5.41 µg/mL)
logD at 25 h [20]: 0.31
logD at 25 h [21]: 3.81
half-life [22]: 3.26 h
Tmax [23]: 0.5 h
Cmax [24]: 3140 ng/mL
AUC/dose [25]: 149.54 ng·h/mL/mg/kg
half-life [26]: 1.09 h
Vd [27]: 2.78 L/kg
clearance [28]: 29.3 mL/min/kg
MRT inf [29]: 2.09 h
Ratio [33]: 2
Activity [34]: 100%
inhibition [35]: < 40%
SMILES: COc1cc(NC(C)=O)cc(Oc2ccnc3ccc(OC)cc23)c1
Activity [8]: Active
Activity [9]: Active
inhibition (INH) [17]: Not Active
Activity [30]: Non-Toxic
fold change (FC) [31]: 6.7
Ratio [32]: 70
